Paper PMC7894426, “Influence of verapamil on the pharmacokinetics of rotundic acid in rats and its potential mechanism” (Pharmaceutical Biology, 2021)
Like-named read-outs stand apart in the source and are kept apart here.

Tests used:
rat liver microsomes = assay: Metabolic stability in rat liver microsomes with or without verapamil; assay type: in vitro ADME; settings: heat-inactivated microsomes, RA 2 µM
Description: (§1) Low metabolic stability is a major barrier to further improve the oral bioavailability of the herb drugs. To gauge the medicinal chemistry value of RA, we evaluated their metabolic stability in RLMs with or without verapamil. The in vitro microsomal stability assay was conducted in triplicate in rat liver microsomal systems, which were supplemented with NADPH as a cofactor. The assay conditions and reaction mixtures were similar to the previous report with minor modifications (Li et al. [2016]; Sun et al. [2019]). Briefly, the incubation system (final volume of 1 mL) consisted of 1 mg/mL rat liver microsomal protein, 1 mM NADPH, and 5 mM MgCl2 in 0.1 M sodium phosphate buffer (pH 7.4). The incubation system was pre-incubated at 37 °C for 15 min and initiated by adding RA methanol solution (final concentration of 2 µM). The effects of verapamil on the metabolic stability of RA were investigated by adding 50 µM of verapamil (Ma et al. [2000]; Lee and Kim [2013]; Dinger et al. [2014]) to RLMs and pre-incubating for 15 min at 37 °C. The final concentration of methanol (used for dissolving the substrate and inhibitor) was lower than 1% (v/v). Negative control was performed in parallel in a heat-inactivated liver microsomes incubation system to measure any chemical instability or non-enzymatic degradation. Aliquots of 50 µL incubation solution were collected from the reaction at 0, 5, 15, 30 and 60 min, and quenched with 50 µL ice-cold methanol (containing 0.5% formic acid) and 100 µL ice-cold acetonitrile containing IS (10 ng/mL). The samples were then vortexed for 1 min and centrifuged at 12,000 rpm for 10 min at 4 °C. The supernatants were collected and analyzed by LC-MS/MS.
(§2) Substrate depletion and in vitro half-life (t1/2) are common descriptors for metabolic stability. The t1/2 is calculated by the substrate disappearance. The obtained concentration value for time t is divided by the value for time zero and then multiplied by a factor of 100, which represents the ‘% Remaining’ to provide the relative remaining substrate level for the time t. The natural logarithm (ln) of the ‘% Remaining’ of RA was plotted against the incubation time (in min) using linear regression.
(§3) Where, ke, the elimination rate constant, is the slope of a linear regression curve in a semilog plot. Data were collected from triplicate experiments.

[1] = as above; assay type: in vitro ADME; settings: rat, liver microsomes, RLMs 1 mg/mL, RA 2 µM; for k el at 2 µM: read-out: ke (converted)
Description: as §1, §2, §3

CYP2C8 = molecular target: T1, CYP2C8 (Homo sapiens, UniProt P10632); assay: Metabolic depletion of RA by rhCYP2C8; assay type: in vitro ADME; settings: rhCYP2C8 25 pM, RA 2 µM, 30 min
T1 construct: purchased Research Institute for Liver Disease (Shanghai) Co., Ltd
T1 sequence (P10632 1-490): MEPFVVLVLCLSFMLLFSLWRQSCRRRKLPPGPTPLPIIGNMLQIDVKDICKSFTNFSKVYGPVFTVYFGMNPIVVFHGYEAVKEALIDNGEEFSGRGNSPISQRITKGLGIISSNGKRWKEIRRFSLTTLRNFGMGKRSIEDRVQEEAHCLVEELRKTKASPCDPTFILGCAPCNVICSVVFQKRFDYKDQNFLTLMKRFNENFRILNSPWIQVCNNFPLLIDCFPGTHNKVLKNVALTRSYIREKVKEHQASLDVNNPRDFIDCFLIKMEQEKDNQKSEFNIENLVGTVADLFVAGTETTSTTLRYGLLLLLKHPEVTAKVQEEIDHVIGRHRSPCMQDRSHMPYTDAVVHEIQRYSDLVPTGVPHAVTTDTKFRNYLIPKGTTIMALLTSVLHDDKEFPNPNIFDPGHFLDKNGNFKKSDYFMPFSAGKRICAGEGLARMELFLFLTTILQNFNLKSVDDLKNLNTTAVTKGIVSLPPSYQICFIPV
Description: (§4) The metabolic stability of RA was evaluated against five rhCYPs (1A2, 2C8, 2C9, 2D6 and 3A4). Incubation was taken place in 0.1 M sodium phosphate buffer (pH 7.4) containing 5 mM MgCl2, 1 mM NADPH, and 25 pM rhCYP enzyme protein at 37 °C in a total volume of 1 mL. After pre-incubated for 5 min, the reactions were started by the addition of RA methanol solution (final concentration of 2 µM). Aliquots of 50 µL incubation solution were collected from the reaction at 0, 5, 10, 20 and 30 min, and quenched with 50 µL ice-cold methanol (containing 0.5% formic acid) and 100 µL ice-cold acetonitrile containing IS (10 ng/mL). The heat-inactivated rhCYP3A4 were used as negative controls. All reactions were conducted in triplicate, followed by LC-MS/MS analysis. Results presented in percentage of drug remaining in incubation starting at 100% at time zero.

P-gp = assay: Bidirectional transport across Caco-2 cell monolayer; assay type: in vitro ADME, human; settings: human, pH 7.4, with verapamil 50 µM, Caco-2, 25 µM RA, + 50 µM verapamil
Description: (§5) The qualified monolayers were used for transport studies. […] Each experiment was carried out in triplicate.

[2] = as above; assay type: in vitro ADME, human; settings: human, pH 7.4, Caco-2, 25 µM RA, without verapamil
Description: as §5

MDCKII-MDR1 cells = assay: MTS cell-proliferation assay; assay type: cell-based, canine; settings: 25 µM RA
CYP2D6 = molecular target: T2, CYP2D6 (Homo sapiens, UniProt P10635); assay: Metabolic depletion of RA by rhCYP2D6; assay type: in vitro ADME; settings: rhCYP2D6 25 pM, RA 2 µM, 30 min
T2 construct: purchased Research Institute for Liver Disease (Shanghai) Co., Ltd
Description: as §4

CYP2C9 = molecular target: T3, CYP2C9 (Homo sapiens, UniProt P11712); assay: Metabolic depletion of RA by rhCYP2C9; assay type: in vitro ADME; settings: rhCYP2C9 25 pM, RA 2 µM, 30 min
T3 construct: purchased Research Institute for Liver Disease (Shanghai) Co., Ltd
Description: as §4

Caco-2 cells = assay: MTS cell-proliferation assay; assay type: cell-based, human; settings: 25 µM RA
[3] = pH 7.4, with verapamil 50 µM, pre-treatment of verapamil 50 µM
[4] = 10 min, read-out: RE (efflux ratio)
[5] = 20 min, read-out: RE (efflux ratio)
[6] = 40 min, read-out: RE (efflux ratio)
[7] = 60 min, read-out: RE (efflux ratio)

T3 sequence (P11712 whole entry): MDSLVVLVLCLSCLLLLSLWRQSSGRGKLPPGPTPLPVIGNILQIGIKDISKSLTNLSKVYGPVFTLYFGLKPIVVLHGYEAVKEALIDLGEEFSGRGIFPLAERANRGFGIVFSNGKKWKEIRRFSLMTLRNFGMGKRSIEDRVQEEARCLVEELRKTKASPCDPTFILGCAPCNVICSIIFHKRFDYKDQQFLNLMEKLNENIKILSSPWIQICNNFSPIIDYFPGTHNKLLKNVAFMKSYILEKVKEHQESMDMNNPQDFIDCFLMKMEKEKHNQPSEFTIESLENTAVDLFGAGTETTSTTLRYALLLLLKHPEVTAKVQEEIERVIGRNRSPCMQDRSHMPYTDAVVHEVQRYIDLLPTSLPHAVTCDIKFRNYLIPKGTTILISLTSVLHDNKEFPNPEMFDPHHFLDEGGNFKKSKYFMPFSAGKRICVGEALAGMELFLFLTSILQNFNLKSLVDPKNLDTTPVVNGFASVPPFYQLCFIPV
T2 sequence (P10635 whole entry): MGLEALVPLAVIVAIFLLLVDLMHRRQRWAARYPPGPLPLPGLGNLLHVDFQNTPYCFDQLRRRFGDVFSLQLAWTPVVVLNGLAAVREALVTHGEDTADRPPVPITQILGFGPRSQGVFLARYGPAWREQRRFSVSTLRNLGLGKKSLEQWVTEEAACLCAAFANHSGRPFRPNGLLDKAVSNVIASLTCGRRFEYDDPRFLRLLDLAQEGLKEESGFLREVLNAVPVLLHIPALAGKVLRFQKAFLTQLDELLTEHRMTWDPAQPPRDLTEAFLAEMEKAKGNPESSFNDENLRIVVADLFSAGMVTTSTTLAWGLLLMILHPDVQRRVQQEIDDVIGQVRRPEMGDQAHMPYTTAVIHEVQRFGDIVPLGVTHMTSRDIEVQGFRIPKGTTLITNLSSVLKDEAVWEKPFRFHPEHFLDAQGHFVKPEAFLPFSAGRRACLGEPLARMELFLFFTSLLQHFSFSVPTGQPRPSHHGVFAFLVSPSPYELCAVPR

- degradation in negative control (rat liver microsomes): No obvious degradation
- half-life at 2 µM [1, 3]: 58.2 ± 5.17 min
- microsomal CLint at 2 µM [1, 3]: 12 ± 1.06 µL/min/mg
- k el at 2 µM [1, 3]: 0.0002 s⁻¹
- half-life at 2 µM ([1]; pH 7.4, control): 14.3 ± 0.941 min
- microsomal CLint at 2 µM ([1]; pH 7.4, control): 48.5 ± 3.18 µL/min/mg
- k el at 2 µM ([1]; pH 7.4, control): 0.000808 s⁻¹
- RA converted (CYP2C8): < 30%
- Papp A→B at 10 min, 25 µM (P-gp; 10 min): 1.07 ± 0.212 ×10⁻⁶ cm/s
- Papp B→A at 10 min, 25 µM (P-gp; 10 min): 2.73 ± 0.348 ×10⁻⁶ cm/s
- efflux ratio at 10 min, 25 µM (P-gp; [4]): 2.55
- Papp A→B at 20 min, 25 µM (P-gp; 20 min): 2.45 ± 0.707 ×10⁻⁶ cm/s
- Papp B→A at 20 min, 25 µM (P-gp; 20 min): 5.32 ± 0.306 ×10⁻⁶ cm/s
- efflux ratio at 20 min, 25 µM (P-gp; [5]): 2.17
- Papp A→B at 40 min, 25 µM (P-gp; 40 min): 4.69 ± 0.945 ×10⁻⁶ cm/s
- Papp B→A at 40 min, 25 µM (P-gp; 40 min): 5.68 ± 0.683 ×10⁻⁶ cm/s
- efflux ratio at 40 min, 25 µM (P-gp; [6]): 1.21
- Papp A→B at 60 min, 25 µM (P-gp; 60 min): 4.71 ± 0.524 ×10⁻⁶ cm/s
- Papp B→A at 60 min, 25 µM (P-gp; 60 min): 5.29 ± 0.438 ×10⁻⁶ cm/s
- efflux ratio at 60 min, 25 µM (P-gp; [7]): 1.12
- efflux ratio at 25 µM ([2]; 10–60 min, read-out: Papp (BL→AP) relative to Papp (AP→BL)): 2
- Papp A→B at 10 min, 25 µM ([2]; 10 min): 0.468 ± 0.0625 ×10⁻⁶ cm/s
- Papp B→A at 10 min, 25 µM ([2]; 10 min): 3.25 ± 0.35 ×10⁻⁶ cm/s
- efflux ratio at 10 min, 25 µM [2, 4]: 6.93
- Papp A→B at 20 min, 25 µM ([2]; 20 min): 0.776 ± 0.128 ×10⁻⁶ cm/s
- Papp B→A at 20 min, 25 µM ([2]; 20 min): 5.45 ± 0.806 ×10⁻⁶ cm/s
- efflux ratio at 20 min, 25 µM [2, 5]: 7.02
- Papp A→B at 40 min, 25 µM ([2]; 40 min): 2.8 ± 0.467 ×10⁻⁶ cm/s
- Papp B→A at 40 min, 25 µM ([2]; 40 min): 7.13 ± 0.36 ×10⁻⁶ cm/s
- efflux ratio at 40 min, 25 µM [2, 6]: 2.55
- Papp A→B at 60 min, 25 µM ([2]; 60 min): 2.84 ± 0.441 ×10⁻⁶ cm/s
- Papp B→A at 60 min, 25 µM ([2]; 60 min): 6.56 ± 0.941 ×10⁻⁶ cm/s
- efflux ratio at 60 min, 25 µM [2, 7]: 2.31
- RA converted (CYP2D6): < 30%
- RA converted (CYP2C9): 41.4%
SMILES: C[C@@H]1CC[C@]2(C(=O)O)CC[C@]3(C)C(=CC[C@@H]4[C@@]5(C)CC[C@H](O)[C@@](C)(CO)[C@@H]5CC[C@]43C)[C@@H]2[C@]1(C)O [RA, Rotundic acid]
- effect on cell proliferation (MTS) (MDCKII-MDR1 cells): did not influence the cell proliferation
- effect on cell proliferation (MTS) (Caco-2 cells): did not influence the cell proliferation
